Experimental data: paper PMC7450057, “Enhancing intracellular accumulation and target engagement of PROTACs with reversible covalent chemistry” (Nature Communications, 2020)
Where “and” joins values, the source holds several entries; their conditions need not be identical. Identical values can stand only once. Like-named read-outs stand apart in the source and are kept apart here.

Key:
MOLM-14 cells = assay: AlamarBlue cell viability assay, MOLM-14; details: for MOLM-14 Cell Viability%: Figure 2f, 5 replicates
Experimental: (§1) The IC50 was calculated using GraphPad Prism software with a four-parameter dose-response curve fit.

Mino cells = assay: AlamarBlue cell viability assay, Mino; format: cell-based; details: for Mino Cell Viability%: Figure 2f, 5 replicates
Experimental: as §1

BTK [1] = molecular target: BTK (Mus musculus, UniProt P35991); assay: BTK degradation in mouse B-cell lymphoma cell line derived from Eu-Myc mice; format: cell-based; set-up: endogenous in cells; host or cells: B cell lymphoma cell line derived from Eu-Myc mice; details: Supplementary Figure 10, replicates, DMSO about 100
Chain of BTK (Mus musculus, UniProt P35991) (P35991 whole entry): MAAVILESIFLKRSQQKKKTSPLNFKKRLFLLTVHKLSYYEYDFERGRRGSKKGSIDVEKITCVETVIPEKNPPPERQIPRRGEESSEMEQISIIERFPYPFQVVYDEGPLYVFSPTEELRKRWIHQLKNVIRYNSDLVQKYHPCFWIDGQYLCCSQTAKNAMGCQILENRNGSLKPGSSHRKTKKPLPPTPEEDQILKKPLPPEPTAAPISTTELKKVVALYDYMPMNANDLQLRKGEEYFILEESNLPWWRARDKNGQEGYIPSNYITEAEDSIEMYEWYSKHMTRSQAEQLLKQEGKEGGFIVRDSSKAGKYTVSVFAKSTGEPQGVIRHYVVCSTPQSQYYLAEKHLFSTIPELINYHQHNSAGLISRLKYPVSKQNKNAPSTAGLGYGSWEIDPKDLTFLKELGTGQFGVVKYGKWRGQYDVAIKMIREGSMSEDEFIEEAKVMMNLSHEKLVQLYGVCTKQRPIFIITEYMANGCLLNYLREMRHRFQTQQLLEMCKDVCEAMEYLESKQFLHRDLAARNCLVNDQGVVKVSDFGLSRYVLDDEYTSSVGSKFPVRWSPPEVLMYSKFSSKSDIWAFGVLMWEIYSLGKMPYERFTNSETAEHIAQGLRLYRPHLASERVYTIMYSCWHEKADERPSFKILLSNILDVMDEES
Experimental: MOLM-14 cell line was obtained from Dr. Conneely at Baylor College of Medicine, and the Mino cells were purchased from the American Type Culture Collection (ATCC, Cat. No. CRL-3000). Both cell lines were cultured in RPMI 1640 medium (Thermo Fisher Scientific, Cat. No. MT10040CV) supplemented with 10% fetal bovine serum (GE Healthcare, Cat. No. SH30071.03) and 1% Pen/Strep (Thermo Fisher Scientific, Cat. No. 15140163). The wild-type and C481S BTK XLA cell lines were gifts from Dr. Woyach at The Ohio State University and were cultured in RPMI 1640 medium with 15% fetal bovine serum, 1% Pen/Strep, and 1.0 µg/ml puromycin (Thermo Fisher Scientific, Cat. No. A1113803). HEK 293T/17 cells were purchased from ATCC (Cat. No. CRL-11268) were maintained in DMEM (Thermo Fisher Scientific, Cat. No. MT10013CV) with 10% fetal bovine serum and 1% Pen-Strep. The B cell lymphoma cell line derived from Eu-Myc mice was a gift from Dr. Yulin Li at Houston Methodist Research Institute and cultured in RPMI 1640 medium supplemented with 15% (v/v) fetal bovine serum (FBS), 100 U/mL penicillin, 100 μg/mL streptomycin, and 0.05 mM beta-mercaptoethanol and puromycin (1 μg/mL). Cells were grown at 37 °C with 5% CO2.
The collected cells and spleen tissues were lysed in RIPA lysis buffer (50 mM Tris-HCl, pH 7.4, 150 mM NaCl, 1% NP-40, 0.5% sodium deoxycholate, 0.1% SDS) supplemented with Halt™ Protease and Phosphatase Inhibitor Cocktail (Thermo Fisher Scientific, Cat. No. PI78440) immediately before use. Lysates were centrifuged at 15,000 × g for 10 min at 4 °C and the supernatant was quantified for total protein concentration using the Pierce BCA Protein Assay (Thermo Fisher Scientific, Cat. No. 23225). Thirty micrograms of protein were loaded onto sodium dodecyl sulfate−polyacrylamide gel for electrophoresis (Bio-Rad) and transferred onto PVDF membranes (Millipore, Cat. No. IPVH00010). […] Imaging was performed using the ECL Prime chemiluminescent western blot detection reagents (GE Healthcare, Cat. No. RPN2232) by visualization of the blots to X-Ray film or with an Imager (Kindle Biosciences, Cat. No. D1001). All western blots were subsequently processed and quantified with Imager software. Protein level was normalized to β-actin or GAPDH loading controls.

BTK-NanoLuc fusion = molecular target: T1, BTK-NanoLuc fusion (Homo sapiens, UniProt Q06187); assay: NanoBRET BTK in-cell target engagement assay; format: cell-based; details: for NanoBRET(%): Figure 3d, triplicates
T1 construct: host or cells: HEK 293T/17
T1 sequence (Q06187 whole entry, the tested form may be a part): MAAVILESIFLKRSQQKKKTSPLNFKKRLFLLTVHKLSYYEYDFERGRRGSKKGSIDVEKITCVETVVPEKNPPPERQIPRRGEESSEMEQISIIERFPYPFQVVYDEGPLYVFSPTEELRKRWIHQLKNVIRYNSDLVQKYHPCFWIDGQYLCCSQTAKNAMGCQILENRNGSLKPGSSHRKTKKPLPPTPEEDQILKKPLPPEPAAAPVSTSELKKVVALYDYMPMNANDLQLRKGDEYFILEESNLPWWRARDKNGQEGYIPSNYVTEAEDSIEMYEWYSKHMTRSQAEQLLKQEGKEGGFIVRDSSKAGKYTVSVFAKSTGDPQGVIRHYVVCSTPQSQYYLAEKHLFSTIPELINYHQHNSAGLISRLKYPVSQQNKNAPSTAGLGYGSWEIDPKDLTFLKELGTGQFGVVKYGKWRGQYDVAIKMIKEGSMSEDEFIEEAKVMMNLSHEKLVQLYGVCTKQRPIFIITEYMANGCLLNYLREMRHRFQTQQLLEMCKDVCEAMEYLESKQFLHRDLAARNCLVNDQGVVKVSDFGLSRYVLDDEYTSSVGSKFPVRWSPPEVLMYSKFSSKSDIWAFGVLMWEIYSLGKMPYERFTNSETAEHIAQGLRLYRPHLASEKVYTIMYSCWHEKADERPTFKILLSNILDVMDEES
Experimental: The target engagement assay for BTK or CRBN was from Promega (BTK kit, Cat. No. N2500; CRBN kit, Cat. No. CS1810C136) and was performed according to the manufacture’s instruction with some modifications. Briefly, HEK 293/T17 cells (ATCC) were transiently transfected with BTK-NanoLuc® fusion vector or NanoLuc®-CRBN fusion vector (Promega) in 0.125 M CaCl2 and 1x HBS. Forty-eight hours after transfection, the cells were resuspended in Opti-MEM medium (Life Technologies, Cat. No. 11058021) at the density of 2 × 10^5 cells per mL and were plated into 96-well plates (Corning, Cat. No. CLS3600). Cells were incubated with 1.0 µM (BTK) or 0.5 µM (CRBN) NanoBRET™ Tracer and serially diluted unlabeled BTK PROTAC compounds (from 10 to 0.0032 µM, 5-fold dilution) for 2 h at 37 °С with 5% CO2 in an incubator. After 2 h incubation, the 3X Nano-Glo® Substrate with NanoLuc® extracellular inhibitor were added to cells and developed for 3 min at room temperature. BRET signals were collected using a BioTek SYNERGY H1 microplate reader equipped with a 450/80-nm BP filter for donor emission and a 610-nm LP filter for acceptor emission. BRET Ratio was calculated with the equation: [(Acceptor sample/Donor sample)–(Acceptor no tracer control/Donor no tracer control)] × 1000. The IC50 of the compound against its BTK or CRBN tracer was calculated using GraphPad Prism software.

BTK [2] = molecular target: BTK (Homo sapiens, UniProt Q06187); assay: BTK degradation in MOLM-14 cells (western blot); format: cell-based; set-up: endogenous in cells; host or cells: MOLM-14; details: Figure 2b, duplicates
Chain of BTK (Homo sapiens, UniProt Q06187) (Q06187 whole entry): as the sequence (Q06187 whole entry, the tested form may be a part) above

[3] = Permeability by lipid-PAMPA method (Pharmaron); format: in vitro ADME; details: for recovery at 16 h, 10 μM: PAMPA
Experimental: The permeability of compounds was measured using Lipid-PAMPA method by Pharmaron. Preparation of stock solutions: testosterone and methotrexate were used as control compounds in this assay. The stock solutions of positive controls were prepared in DMSO or acetonitrile at the concentration of 10 mM. Prepare a stock solution of compounds in DMSO at the concentration of 10 mM, and further dilute with PBS (pH 7.4). […]
Assay procedures: prepare a 1.8% solution (w/v) of lecithin in dodecane, and sonicate the mixture to ensure a complete dissolution. Carefully pipette 5 μL of the lecithin/dodecane mixture into each acceptor plate well (top compartment), avoiding pipette tip contact with the membrane. Immediately after the application of the artificial membrane (within 10 min), add 300 μL of PBS (pH 7.4) solution to each well of the acceptor plate. Add 300 μL of drug-containing solutions to each well of the donor plate (bottom compartment) in triplicate. Slowly and carefully place the acceptor plate into the donor plate, making sure the underside of the membrane is in contact with the drug-containing solutions in all wells. Replace the plate lid and incubate at 25 °C, 60 rpm for 16 h. After incubation, aliquots of 50 μL from each well of acceptor and donor plate are transferred into a 96-well plate. Add 450 μL of methanol (containing IS: 100 nM Alprazolam, 200 nM Caffeine, 100 nM Tolbutamide) into each well. Cover with plate lid. Vortex at 750 rpm for 100 s. Samples were centrifuged at 3220 × g for 20 min. Determine the compound concentrations by LC/MS/MS. The effective permeability (Pe), in units of centimeter per second, can be calculated using the following equation: LogPe=LogC×−Ln1−drugacceptor/drugequilibrium

Nc1ncnc2c1c(-c1ccc(Oc3ccccc3)cc1)nn2C1CCN(CCOCCOCC(=O)Nc2ccc3c(c2)C(=O)N(C2CCC(=O)NC2=O)C3=O)CC1 (stereo not shown) [MT-802, reference compound]
MOLM-14 Cell Viability% (MOLM-14 cells; 1.00E-05 M): 30.9193% and 24.2086% and 26.5576% and 19.8014% and 27.7094%
MOLM-14 Cell Viability% (MOLM-14 cells; 1.60E-08 M): 94.0978% and 96.8402% and 91.572% and 84.5934% and 78.4642%
MOLM-14 Cell Viability% (MOLM-14 cells; 2.00E-06 M): 75.5166% and 72.09% and 75.4424% and 57.762% and 72.8197%
MOLM-14 Cell Viability% (MOLM-14 cells; 3.20E-09 M): 96.9942% and 95.4205% and 85.785% and 84.5706% and 80.2089%
MOLM-14 Cell Viability% (MOLM-14 cells; 4.00E-07 M): 88.0029% and 82.2386% and 86.6288% and 76.8507% and 80.4769%
MOLM-14 Cell Viability% (MOLM-14 cells; 6.40E-10 M): 81.9593% and 80.8361% and 77.1985% and 75.6192% and 75.9328%
MOLM-14 Cell Viability% (MOLM-14 cells; 8.00E-08 M): 97.8209% and 89.394% and 93.0772% and 82.672% and 84.7872%
IC50 (MOLM-14 cells; Homo sapiens, MOLM-14, 72 h, read-out: Cell viability IC50, MOLM-14 cells, 72 h, Alamar Blue): 4700 nM
Mino Cell Viability% (Mino cells; 1.00E-06 M): 55.7423% and 49.4302% and 55.3437% and 39.2835% and 54.1265%
Mino Cell Viability% (Mino cells; 1.60E-09 M): 110.483% and 109.05% and 93.6147% and 92.6129% and 76.2619%
Mino Cell Viability% (Mino cells; 2.00E-07 M): 89.5862% and 87.1949% and 82.8432% and 61.1711% and 66.0828%
Mino Cell Viability% (Mino cells; 3.20E-10 M): 84.5559% and 99.9483% and 73.8491% and 92.4729% and 74.9908%
Mino Cell Viability% (Mino cells; 4.00E-08 M): 100.53% and 96.2968% and 92.2144% and 82.8217% and 85.9885%
Mino Cell Viability% (Mino cells; 5.00E-06 M): 34.2209% and 40.5007% and 48.9347% and 30.3001% and 41.1685%
Mino Cell Viability% (Mino cells; 8.00E-09 M): 99.2266% and 99.1512% and 91.8158% and 60.6002% and 61.5373%
IC50 (Mino cells; Homo sapiens, Mino cells, 72 h, Alamar Blue): 1000 nM
BTK quantification (anti-BTK / anti-β-actin) (BTK [1]; 8 nM): 79.5706 and 82.6481
BTK quantification (anti-BTK / anti-β-actin) (BTK [1]; 40 nM): 47.7374 and 48.0125
BTK quantification (anti-BTK / anti-β-actin) (BTK [1]; 200 nM): 22.5968 and 20.4165
NanoBRET(%) (BTK-NanoLuc fusion; 1.00E-05 M): 8.881% and 7.144% and 4.414%
NanoBRET(%) (BTK-NanoLuc fusion; 1.60E-08 M): 91.6984% and 97.1324% and 98.4487%
NanoBRET(%) (BTK-NanoLuc fusion; 2.00E-06 M): 18.1369% and 17.2809% and 19.5819%
NanoBRET(%) (BTK-NanoLuc fusion; 3.20E-09 M): 100.618% and 96.0652% and 96.5159%
NanoBRET(%) (BTK-NanoLuc fusion; 4.00E-07 M): 66.8491% and 61.8713% and 67.4598%
NanoBRET(%) (BTK-NanoLuc fusion; 8.00E-08 M): 83.5249% and 103.088% and 96.5333%
IC50 (BTK-NanoLuc fusion; HEK-293 cells, BTK tracer 1.0 µM, experiment of Fig. 3d, read-out: BTK target engagement IC50): 660 nM
Quantification anti-BTK / anti-β-actin (BTK level vs DMSO) (BTK [2]; 8 nM): 79.5706 and 82.6481
Quantification anti-BTK / anti-β-actin (BTK level vs DMSO) (BTK [2]; 40 nM): 47.7374 and 48.0125
Quantification anti-BTK / anti-β-actin (BTK level vs DMSO) (BTK [2]; 200 nM): 22.5968 and 20.4165

CN(Cc1cnc2nc(N)nc(N)c2n1)c1ccc(C(=O)N[C@@H](CCC(=O)O)C(=O)O)cc1 [Methotrexate, methotrexate, reference compound]
recovery at 16 h, 10 μM ([3]; Recovery%): 105%

C[C@]12CC[C@H]3[C@@H](CCC4=CC(=O)CC[C@@]43C)[C@@H]1CC[C@@H]2O [Testosterone, testosterone, reference compound]
recovery at 16 h, 10 μM ([3]; Mean, read-out: Recovery%): 91.1%
recovery at 16 h, 10 μM ([3]; single replicates, read-out: Recovery%): 88.7%
Recovery% ([3]; single replicates): 88.88% and 95.84%
-Log Pe ([3]; single replicates, 10 μM, PBS pH 7.4, 25 °C, 16 h, Pe in centimeter per second): 4.51 and 4.29 and 4.30
